Structures can show the parent of a compound that is named as a salt. Where two headings read alike, the source gives them in different places.
How the values were obtained:
[1] = Pharmacokinetics after intravenous or oral dosing, plasma LC/MS/MS; type: in vivo; conditions: fasted male Sprague Dawley rats
Description: Fasted, male Sprague Dawley rats were dosed intravenously or orally. Blood samples were collected at pre-determined time points and plasma was separated. Test article concentrations were determined in plasma by a LC/MS/MS method. Non compartmental analysis was performed to estimate the area under the plasma concentration vs. time curve (AUC). Clearance parameters (CL), bioavailabilities (F) and half-lives were calculated.

[2] = target: Nav1.7 sodium channels (human SCN9A gene) (Homo sapiens (Human), UniProt Q15858); assay: Automated patch clamp (IonWorks Barracuda) of Nav1.7 stably expressed in CHO cells; type: cell-based
Nav1.7 sodium channels (human SCN9A gene), sequence (Q15858 whole entry): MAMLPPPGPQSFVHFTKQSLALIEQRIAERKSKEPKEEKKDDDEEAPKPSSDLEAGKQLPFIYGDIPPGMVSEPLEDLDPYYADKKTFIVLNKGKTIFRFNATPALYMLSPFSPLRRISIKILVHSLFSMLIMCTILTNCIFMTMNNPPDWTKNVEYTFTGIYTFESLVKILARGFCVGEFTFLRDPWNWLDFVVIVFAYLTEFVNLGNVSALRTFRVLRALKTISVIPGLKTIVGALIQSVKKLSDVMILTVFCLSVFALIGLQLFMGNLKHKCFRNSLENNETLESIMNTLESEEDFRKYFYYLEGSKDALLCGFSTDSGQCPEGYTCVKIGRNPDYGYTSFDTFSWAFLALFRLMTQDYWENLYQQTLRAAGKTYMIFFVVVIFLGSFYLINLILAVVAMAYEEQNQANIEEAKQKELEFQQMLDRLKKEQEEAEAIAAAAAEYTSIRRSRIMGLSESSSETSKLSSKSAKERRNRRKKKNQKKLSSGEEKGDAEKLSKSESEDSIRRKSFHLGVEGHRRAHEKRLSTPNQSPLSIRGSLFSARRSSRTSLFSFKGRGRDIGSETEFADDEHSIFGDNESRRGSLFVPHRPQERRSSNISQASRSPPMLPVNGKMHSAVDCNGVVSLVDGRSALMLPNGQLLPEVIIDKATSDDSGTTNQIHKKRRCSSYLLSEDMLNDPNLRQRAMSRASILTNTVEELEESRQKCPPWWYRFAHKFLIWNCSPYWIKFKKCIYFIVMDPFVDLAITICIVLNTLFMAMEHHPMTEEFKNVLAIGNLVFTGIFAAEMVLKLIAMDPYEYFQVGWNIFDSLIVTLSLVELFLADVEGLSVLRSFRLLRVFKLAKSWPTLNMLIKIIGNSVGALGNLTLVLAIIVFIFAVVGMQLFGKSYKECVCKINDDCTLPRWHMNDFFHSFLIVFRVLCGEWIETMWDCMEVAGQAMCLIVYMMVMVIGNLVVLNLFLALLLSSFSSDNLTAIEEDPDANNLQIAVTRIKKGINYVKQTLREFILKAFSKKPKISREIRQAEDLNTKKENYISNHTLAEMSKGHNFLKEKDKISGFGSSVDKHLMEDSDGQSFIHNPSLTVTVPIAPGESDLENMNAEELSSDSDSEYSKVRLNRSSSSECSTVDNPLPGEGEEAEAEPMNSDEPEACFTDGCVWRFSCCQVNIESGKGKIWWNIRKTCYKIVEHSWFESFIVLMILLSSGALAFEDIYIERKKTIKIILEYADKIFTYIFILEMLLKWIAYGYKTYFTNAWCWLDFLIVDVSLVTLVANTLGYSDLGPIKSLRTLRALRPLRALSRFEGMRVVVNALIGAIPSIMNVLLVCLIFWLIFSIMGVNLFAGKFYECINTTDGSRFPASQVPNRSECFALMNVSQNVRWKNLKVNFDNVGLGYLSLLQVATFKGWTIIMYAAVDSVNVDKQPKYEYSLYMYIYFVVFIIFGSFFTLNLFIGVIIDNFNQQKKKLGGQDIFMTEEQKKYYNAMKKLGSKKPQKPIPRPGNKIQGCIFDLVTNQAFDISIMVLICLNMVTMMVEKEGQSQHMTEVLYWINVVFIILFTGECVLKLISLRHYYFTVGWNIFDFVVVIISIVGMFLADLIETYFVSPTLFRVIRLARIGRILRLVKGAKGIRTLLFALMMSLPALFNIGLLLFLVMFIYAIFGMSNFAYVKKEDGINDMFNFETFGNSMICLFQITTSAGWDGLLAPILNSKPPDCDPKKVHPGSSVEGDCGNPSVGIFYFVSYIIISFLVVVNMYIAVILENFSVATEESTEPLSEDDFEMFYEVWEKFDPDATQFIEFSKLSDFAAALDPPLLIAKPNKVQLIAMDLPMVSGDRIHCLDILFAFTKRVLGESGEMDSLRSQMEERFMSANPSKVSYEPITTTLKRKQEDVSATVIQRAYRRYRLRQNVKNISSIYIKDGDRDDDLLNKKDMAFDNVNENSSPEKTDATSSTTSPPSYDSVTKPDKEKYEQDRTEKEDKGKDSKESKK
Description: The potencies of the compounds provided herein to block specific Na+ channels was measured using automated patch clamp electrophysiologically of Nav1.7 sodium channels (human SCN9A gene) stably expressed in CHO cells using the IonWorks™ Barracuda system. Currents were measured from the whole cell patch configuration. From a holding potential of −90 mV, membranes were subjected to a 200 ms pre-pulse to −120 mV, then pulsed to 0 mV to measure blockade of the tonic (resting) state. Inactivated state block was elicited by repolarization to −100 mV (20 ms pulse duration), followed by depolarization to 0 mV (20 ms pulse duration). Peak inward Na+ currents were measured in the presence of vehicle or various concentrations of the test compound to determine the percent block of current. Concentration-response relationships were used to calculate IC50 values for the illustrative compounds.

[3] = inactivated state block, CHO cells, read-out: Inactivated state IC50
[4] = tonic (resting) state block, CHO cells, read-out: Tonic state IC50
[5] = read-out: Inactivated state IC50

| Structure (SMILES) | exposure after oral dosing (qualitative ranking) [1] | IC50 [2, 3] [µM] | IC50 [2, 4] [µM] | other results |
| --- | --- | --- | --- | --- |
| Nc1nc(N2CCN(CC(O)COC(F)(F)F)CC2)nnc1-c1cccc(Cl)c1Cl (stereo not drawn) [Compound 27, 1-(4-(5-Amino-6-(2,3-dichlorophenyl)-1,2,4-triazin-3-yl)piperazin-1-yl)-3-(trifluoromethoxy)propan-2-ol] | best exposure after oral dosing |  |  | pharmacokinetics (qualitative ranking of the compounds tested) [1]: most favorable pharmacokinetics |
| CC(CO)(CO)Nc1nnc(-c2cccc(Cl)c2Cl)c(N)n1 [Compound 47, 2-((5-Amino-6-(2,3-dichlorophenyl)-1,2,4-triazin-3-yl)amino)-2-methylpropane-1,3-diol] | best exposure after oral dosing |  |  |  |
| COCCOCC(C)(CO)Nc1nnc(-c2cccc(Cl)c2Cl)c(N)n1 (stereo not drawn) [Compound 49, 2-((5-Amino-6-(2,3-dichlorophenyl)-1,2,4-triazin-3-yl)amino)-3-(2-methoxyethoxy)-2-methylpropan-1-ol] | best exposure after oral dosing |  |  |  |
| Nc1nc(NCCOCCOCCOC(F)F)nnc1-c1cccc(Cl)c1Cl [Compound 57, 6-(2,3-Dichlorophenyl)-N^3-(2-(2-(2-(difluoromethoxy)ethoxy)ethoxy)ethyl)-1,2,4-triazine-3,5-diamine] | best exposure after oral dosing |  |  |  |
| COC(=O)[C@@H]1C[C@@H](O)CN1c1nnc(-c2cccc(Cl)c2Cl)c(N)n1 [Compound 65, (2S,4R)-Methyl 1-(5-amino-6-(2,3-dichlorophenyl)-1,2,4-triazin-3-yl)-4-hydroxypyrrolidine-2-carboxylate] | best exposure after oral dosing |  |  | pharmacokinetics (qualitative ranking of the compounds tested) [1]: most favorable pharmacokinetics |
| COC[C@@H](O)COC1CN(c2nnc(-c3cccc(Cl)c3Cl)c(N)n2)C1 [Compound 75, (R)-1-((1-(5-Amino-6-(2,3-dichlorophenyl)-1,2,4-triazin-3-yl)azetidin-3-yl)oxy)-3-methoxypropan-2-ol] | best exposure after oral dosing |  |  | pharmacokinetics (qualitative ranking of the compounds tested) [1]: most favorable pharmacokinetics |
| Nc1nc(N2CCN(C[C@@H](O)COCC(F)(F)F)CC2)nnc1-c1cccc(Cl)c1Cl [Compound 94, (R)-1-(4-(5-amino-6-(2,3-dichlorophenyl)-1,2,4-triazin-3-yl)-piperazin-1-yl)-3-(2,2,2-trifluoroethoxy)-propan-2-ol] | best exposure after oral dosing |  |  | pharmacokinetics (qualitative ranking of the compounds tested) [1]: most favorable pharmacokinetics |
| Nc1nc(N2CC(OCC(F)(F)F)C2)nnc1-c1cccc(Cl)c1Cl [Compound 99, 6-(2,3-dichlorophenyl)-3-(3-(2,2,2-trifluoroethoxy)azetidin-1-yl)-1,2,4-triazin-5-amine.HCl salt] | best exposure after oral dosing |  |  |  |
| COCCOCCOCC(C)CNc1nnc(-c2cccc(Cl)c2Cl)c(N)n1 (stereo not drawn) [Compound 177, 6-(2,3-dichlorophenyl)-N3-(3-(2-(2-methoxyethoxy)ethoxy)-2-methylpropyl)-1,2,4-triazine-3,5-diamine] |  | < 50 | > 200 |  |
| COCCOCCOCC(COCCOCCOC)OCCNc1nnc(-c2cccc(Cl)c2Cl)c(N)n1 [Compound 180, 6-(2,3-dichlorophenyl)-N3-(10-((2-(2-methoxyethoxy)ethoxy)methyl)-2,5,8,11-tetraoxatridecan-13-yl)-1,2,4-triazine-3,5-diamine] |  | 298 | > 200 |  |
| CN(CCO)c1nnc(-c2cccc(Cl)c2Cl)c(N)n1 [Compound 185, 2-((5-amino-6-(2,3-dichlorophenyl)-1,2,4-triazin-3-yl)(methyl)amino)ethanol] |  |  |  | IC50 [2, 5]: 176 µM; IC50 ([2]; read-out: Tonic state IC50): > 200 µM |
| COCCS(=O)(=O)CCOCCNc1nnc(-c2cccc(Cl)c2Cl)c(N)n1 [Compound 186, 6-(2,3-dichlorophenyl)-N3-(2-(2-((2-methoxyethyl)sulfonyl)ethoxy)ethyl)-1,2,4-triazine-3,5-diamine] |  | 100 | > 200 |  |
| C[S+]([O-])CCOCCNc1nnc(-c2cccc(Cl)c2Cl)c(N)n1 (stereo not drawn) [Compound 187, 6-(2,3-dichlorophenyl)-N3-(2-(2-(methylsulfinyl)ethoxy)ethyl)-1,2,4-triazine-3,5-diamine] |  | 160 | > 200 |  |
| COCCOCC(=O)N(C)CCN(C)c1nnc(-c2cccc(Cl)c2Cl)c(N)n1 [Compound 190, N-(2-((5-amino-6-(2,3-dichlorophenyl)-1,2,4-triazin-3-yl)(methyl)amino)ethyl)-2-(2-methoxyethoxy)-N-methylacetamide] |  | 273 | > 200 |  |
| CN(CCOCCNc1cnc(-c2cccc(Cl)c2Cl)c(N)n1)CC(N)=O [Compound 191, 2-((2-(2-((6-amino-5-(2,3-dichlorophenyl)pyrazin-2-yl)amino)ethoxy)ethyl)-(methyl)amino)acetamide] |  | 244 | > 200 |  |
| CN(CCN(C)c1nnc(-c2cccc(Cl)c2Cl)c(N)n1)C(=O)COCC(N)=O [Compound 192, 2-(2-amino-2-oxoethoxy)-N-(2-((5-amino-6-(2,3-dichlorophenyl)-1,2,4-triazin-3-yl)(methyl)amino)ethyl)-N-methylacetamide] |  | > 300 | > 200 |  |
| COCCOCCN(C)CCN(C)c1nnc(-c2cccc(Cl)c2Cl)c(N)n1 [Compound 193, 6-(2,3-dichlorophenyl)-N3-(2-((2-(2-methoxyethoxy)ethyl)(methyl)amino)ethyl)-N3-methyl-1,2,4-triazine-3,5-diamine] |  | < 50 | 62.6 |  |
| NC(=O)CNCCOCCNc1nnc(-c2cccc(Cl)c2Cl)c(N)n1 [Compound 194, 2-((2-(2-((5-amino-6-(2,3-dichlorophenyl)-1,2,4-triazin-3-yl)amino)ethoxy)ethyl)amino)acetamide] |  |  |  | IC50 [2, 5]: > 300 µM; IC50 ([2]; read-out: Tonic state IC50): > 200 µM |
| COCCOCC(=O)NCC(O)CNc1nnc(-c2cccc(Cl)c2Cl)c(N)n1 (stereo not drawn) [Compound 196, N-(3-((5-amino-6-(2,3-dichlorophenyl)-1,2,4-triazin-3-yl)amino)-2-hydroxypropyl)-2-(2-methoxyethoxy)acetamide] |  | > 300 | > 200 |  |
| COC(=O)COCCOCCNc1nnc(-c2cccc(Cl)c2Cl)c(N)n1 [Compound 197, methyl 2-(2-(2-((5-amino-6-(2,3-dichlorophenyl)-1,2,4-triazin-3-yl)amino)ethoxy)ethoxy)acetate] |  | < 50 | > 200 |  |
| COC(=O)CNCCOCCNc1nnc(-c2cccc(Cl)c2Cl)c(N)n1 [Compound 199, methyl 2-((2-(2-((5-amino-6-(2,3-dichlorophenyl)-1,2,4-triazin-3-yl)amino)ethoxy)ethyl)amino)acetate] |  |  |  | IC50 [2, 5]: > 300 µM; IC50 ([2]; read-out: Tonic state IC50): > 200 µM |
| CC(C)(C)OC(=O)COCCN1CCN(c2nnc(-c3cccc(Cl)c3Cl)c(N)n2)CC1 [Compound 203, tert-butyl 2-(2-(4-(5-amino-6-(2,3-dichlorophenyl)-1,2,4-triazin-3-yl)piperazin-1-yl)ethoxy)acetate] |  | < 50 | 87.9 |  |
| CC(C)OCCOCCOCCNc1nnc(-c2cccc(Cl)c2Cl)c(N)n1 [Compound 209, 6-(2,3-dichlorophenyl)-N3-(2-(2-(2-isopropoxyethoxy)ethoxy)ethyl)-1,2,4-triazine-3,5-diamine] |  | < 50 | > 200 |  |
